Where “and” joins values, the source holds several entries; their conditions need not be identical. Equal entries are not always repeated.
Experiment: wn = mass fraction of the nth substance listed
Details: Liquid, Pulse-echo method, w2 = 0.49

CC(F)(F)F [1,1,1-trifluoroethane] + FC(F)C(F)(F)F
speed of sound
Details	253.22 K	258.15 K	265.62 K	273.14 K	280.7 K	288.18 K
940 kPa	–	–	–	500.1 m/s	–	–
1010 kPa	–	–	–	500.9 m/s	–	–
1130 kPa	–	–	–	502.3 m/s	–	427.1 m/s
1140 kPa	–	–	–	–	465.9 m/s	–
1150 kPa	–	574.9 m/s	–	–	–	–
1160 kPa	598.8 m/s	–	–	–	466.2 m/s	–
1170 kPa	–	575.3 m/s	539.5 m/s	–	–	–
1190 kPa	–	575.7 m/s	–	–	–	428.3 m/s
1210 kPa	–	–	540.1 m/s	–	466.5 m/s	–
1260 kPa	599.7 m/s	576.3 m/s	540.5 m/s	503.8 m/s	467.5 m/s	429.1 m/s
1380 kPa	600.9 m/s	577.6 m/s	541.7 m/s	505.3 m/s	469.1 m/s	–
1500 kPa	602 m/s	578.8 m/s	543 m/s	506.6 m/s	471 m/s	432.9 m/s
1630 kPa	603.1 m/s	580 m/s	544.3 m/s	508.1 m/s	472.4 m/s	434.9 m/s
1750 kPa	604.2 m/s	581.2 m/s	545.7 m/s	509.5 m/s	473.9 m/s	436.7 m/s and 436.6 m/s
2010 kPa	606.4 m/s	583.4 m/s	548.3 m/s	512.5 m/s	477.2 m/s	–
2250 kPa	608.7 m/s	585.8 m/s	550.8 m/s	515.3 m/s	480.2 m/s	–
2510 kPa	610.9 m/s	588.1 m/s	553.3 m/s	518.1 m/s	483.5 m/s	–
2750 kPa	613.1 m/s	590.3 m/s	555.9 m/s	520.9 m/s	486.6 m/s	–
3010 kPa	615.1 m/s	592.6 m/s	558.4 m/s	523.7 m/s	489.8 m/s	–
3500 kPa	619.3 m/s	597.1 m/s	563.3 m/s	529.2 m/s	495.6 m/s	–
4000 kPa	623.7 m/s	601.5 m/s	568.3 m/s	534.4 m/s	501.4 m/s	–
4500 kPa	627.9 m/s	606.1 m/s	572.9 m/s	539.5 m/s	507.2 m/s	–
5000 kPa	631.9 m/s	610.4 m/s	577.7 m/s	544.6 m/s	512.8 m/s	–
6010 kPa	639.9 m/s	618.6 m/s	586.7 m/s	554.2 m/s	523.3 m/s	–
7010 kPa	647.5 m/s	626.7 m/s	595.3 m/s	563.6 m/s	533.5 m/s	–
8000 kPa	655.1 m/s	634.7 m/s	603.7 m/s	572.9 m/s	543.1 m/s	–
9000 kPa	662.6 m/s	642.2 m/s	612.1 m/s	581.6 m/s	552.7 m/s	–
10000 kPa	669.8 m/s	649.7 m/s	620.3 m/s	590.2 m/s	561.9 m/s	–
12000 kPa	683.6 m/s	664 m/s	635.3 m/s	606.5 m/s	579.4 m/s	–
14000 kPa	697 m/s	677.9 m/s	649.8 m/s	622 m/s	595.5 m/s	–
16010 kPa	709.7 m/s	691.3 m/s	663.9 m/s	636.6 m/s	611 m/s	–
18000 kPa	722.2 m/s	704.1 m/s	677.1 m/s	650.5 m/s	625.4 m/s	–
20000 kPa	734.3 m/s	716.5 m/s	690.1 m/s	663.8 m/s	639.5 m/s	–
23000 kPa	751.6 m/s	734.2 m/s	708.2 m/s	683.2 m/s	659.6 m/s	–
26000 kPa	768.1 m/s	751.1 m/s	725.7 m/s	701.6 m/s	678.2 m/s	–
29010 kPa	783.7 m/s	767.3 m/s	742.6 m/s	718.9 m/s	696.3 m/s	–
32000 kPa	798.4 m/s	782.5 m/s	758.5 m/s	735.3 m/s	713.7 m/s	–
35000 kPa	812.8 m/s	797.1 m/s	773.9 m/s	751.1 m/s	729.9 m/s	–
40000 kPa	835.8 m/s	820.8 m/s	798.3 m/s	775.8 m/s	755.3 m/s	–
45000 kPa	857.8 m/s	843.3 m/s	821.3 m/s	799.7 m/s	779.7 m/s	–
50000 kPa	878.9 m/s	864.3 m/s	843.1 m/s	822 m/s	802.7 m/s	–
55000 kPa	899 m/s	884.5 m/s	863.8 m/s	843.4 m/s	824.2 m/s	–
60000 kPa	918.8 m/s	904.1 m/s	883.7 m/s	863.4 m/s	845.1 m/s	–
65000 kPa	937.2 m/s	923.1 m/s	902.8 m/s	882.8 m/s	864.9 m/s	–

From the NIST ThermoML archive (doi:10.1021/je060291c)
